Some test systems named below: HCT-15 colon; DU-145 prostate; SN12C renal; A549 NSCLC; HS 578T breast; PC-3 prostate; OVCAR-4 ovarian; MDA-MB-231 breast; K-562 leukemia; UO-31 renal.
Common to all, as to assay: inhibition of tumour cell growth, NCI panel, 48 h

Molecules are shown by their SMILES. Several values for one entry are separate records, joined by “and”; a condition that tells them apart may be missing. Equal entries are not always repeated.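 Growth conditions: 96-well plates. Treatment: test compound, 48 hours, 5 concentrations. Analysis: linear interpolation between bracketing concentrations; unreached endpoints set to highest concentration. The concentration for 50% growth inhibition is given as GI50. At the TGI there is no net growth.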

In the case of `COc1cc2c(cc1OC)C(=O)/C(=C/c1ccc(O)cc1)CC2`, the TGI in the assay with HCT-15 colon, with DU-145 prostate, in the assay on SN12C renal, in the assay with A549 NSCLC, in the assay with HS 578T breast and in the assay on PC-3 prostate was more than 10 µM throughout. For the same molecule, the TGI with OVCAR-4 ovarian was more than 10 µM; with MDA-MB-231 breast, more than 10 µM; in the assay with K-562 leukemia, more than 10 µM; in the assay on UO-31 renal, 4.32 µM.
For `COc1cc2oc(-c3ccc4c(c3)OCO4)c(OC)c(=O)c2c(O)c1OC`, the TGI in the assay with HCT-15 colon, in the assay with DU-145 prostate, with SN12C renal, in the assay on A549 NSCLC, in the assay with HS 578T breast and in the assay with PC-3 prostate was more than 50 µM each time. The TGI in the assay on OVCAR-4 ovarian, in the assay with MDA-MB-231 breast, in the assay on K-562 leukemia and with UO-31 renal was more than 50 µM each time.
With `O=NN1CCCS1(=O)=O`, the TGI in the assay with HCT-15 colon, with DU-145 prostate, in the assay on SN12C renal, with A549 NSCLC, with HS 578T breast and in the assay on PC-3 prostate was more than 100 µM in each case. Also, the TGI in the assay with OVCAR-4 ovarian, in the assay with MDA-MB-231 breast, with K-562 leukemia and with UO-31 renal was more than 100 µM in each case.
Turning to `O=C1C(Cl)=C(c2ccc([N+](=O)[O-])cc2)C(=O)c2c(O)cccc21`, the TGI came out at 3.35 µM in the assay on HCT-15 colon; 19.4 µM in the assay on DU-145 prostate; 10.7 µM in the assay with SN12C renal; 25 µM in the assay with A549 NSCLC; 4.13 µM in the assay on HS 578T breast; 7.28 µM with PC-3 prostate. The TGI in the assay with OVCAR-4 ovarian was 4.62 µM; in the assay on MDA-MB-231 breast it was 3.13 µM; in the assay on K-562 leukemia it was more than 100 µM; in the assay with UO-31 renal, 3.84 µM.
In the case of `NC1c2c(Cl)sc(Cl)c2C(=O)C1O` (stereo not given), the TGI was 30.1 µM in the assay with HCT-15 colon; more than 100 µM in the assay on DU-145 prostate; 29.2 µM in the assay on SN12C renal; more than 100 µM in the assay on A549 NSCLC; more than 100 µM in the assay on HS 578T breast; more than 100 µM with PC-3 prostate. In addition, the TGI with OVCAR-4 ovarian was 50.4 µM; in the assay on MDA-MB-231 breast, more than 100 µM; with K-562 leukemia, more than 100 µM; in the assay on UO-31 renal, more than 100 µM.
On to `COc1ccc(NC(=O)CC(=O)N2N=C(N(c3ccccc3)c3ccccc3)CC2c2ccccc2)cc1` (stereo not given), for which the TGI in the assay on HCT-15 colon, in the assay on DU-145 prostate, in the assay with SN12C renal, in the assay with A549 NSCLC, in the assay on HS 578T breast and in the assay with PC-3 prostate was more than 100 µM in each case. The TGI in the assay with OVCAR-4 ovarian, with MDA-MB-231 breast, with K-562 leukemia and in the assay with UO-31 renal was more than 100 µM each time.
Consider `CCOC(=O)Cc1csc(N=Nc2c(O)[nH]c3ccccc23)n1`, for which the TGI with HCT-15 colon, with DU-145 prostate, in the assay on SN12C renal, with A549 NSCLC, with HS 578T breast and in the assay with PC-3 prostate was more than 100 µM throughout. Further, the TGI in the assay on OVCAR-4 ovarian, with MDA-MB-231 breast, in the assay on K-562 leukemia and with UO-31 renal was more than 100 µM each time.
For the molecule `COc1cc2c(cc1O)CCN(C)[C@H]2Cc1ccc(Oc2c(O)c(OC)cc3c2C[C@H]2c4c(c(OC)c(OC)c(OC)c4-3)CCN2C)cc1`, the TGI came to 10.1 µM with HCT-15 colon; 11.5 µM in the assay on DU-145 prostate; 10.7 µM in the assay with SN12C renal; 10 µM with A549 NSCLC; 17.7 µM in the assay on HS 578T breast; 8.9 µM with PC-3 prostate. Also, the TGI in the assay with OVCAR-4 ovarian was 4.38 µM; in the assay on MDA-MB-231 breast, 9.47 µM; in the assay with K-562 leukemia it was 3.33 µM; in the assay on UO-31 renal, 9.77 µM.
On to `COC(=O)/C=C1\C(=O)C=C2[C@@H]3C[C@H]4C[C@H](CC[C@@]4(C)N21)C3(C)NC(C)=O` (stereo not given in full), for which the TGI in the assay with HCT-15 colon is more than 52.7 µM; with DU-145 prostate it was 32.8 µM; in the assay with SN12C renal it was 26.6 µM; in the assay with A549 NSCLC, more than 57.4 µM; with HS 578T breast, 39 µM; with PC-3 prostate, 31.4 µM. The TGI is 44 µM with OVCAR-4 ovarian, 56.2 µM in the assay on MDA-MB-231 breast, more than 100 µM with K-562 leukemia and more than 52.4 µM in the assay with UO-31 renal.
For `CCn1c(=O)c2c3ccc(OC(C)=O)cc3[nH]c2c2ccc(OC(C)=O)cc21`, the TGI in the assay with HCT-15 colon was more than 100 µM; in the assay on DU-145 prostate, 49.1 µM; in the assay on SN12C renal, more than 100 µM; in the assay with A549 NSCLC, more than 100 µM; with HS 578T breast it was more than 100 µM; in the assay on PC-3 prostate, more than 100 µM. Besides, the TGI with OVCAR-4 ovarian, in the assay on MDA-MB-231 breast, with K-562 leukemia and with UO-31 renal was more than 100 µM each time.
Take `O=c1nc2ccc3sc4ccccc4c(=O)c3n2c(=O)[nH]1`: the TGI in the assay with HCT-15 colon, with DU-145 prostate, in the assay on SN12C renal, in the assay on A549 NSCLC, in the assay on HS 578T breast and in the assay on PC-3 prostate was more than 100 µM throughout. The TGI in the assay on OVCAR-4 ovarian, in the assay with MDA-MB-231 breast, in the assay on K-562 leukemia and in the assay on UO-31 renal was more than 100 µM throughout.
With `COc1ccc(OC)c(C[P+](c2ccccc2)(c2ccccc2)c2ccccc2)c1`, the TGI in the assay with HCT-15 colon is more than 100 µM; with DU-145 prostate it was more than 79.4 µM; with SN12C renal, more than 100 µM; in the assay on A549 NSCLC, more than 56.4 µM; in the assay with HS 578T breast it was 8.45 µM; in the assay with PC-3 prostate it was 8.56 µM. Besides, the TGI with OVCAR-4 ovarian is more than 48.8 µM; in the assay with MDA-MB-231 breast it was 34.9 µM; in the assay with K-562 leukemia it was 5.91 µM; in the assay on UO-31 renal it was 79.4 µM.
As to `COC1(OC)C=CC(=O)C=C1`, the TGI is 16.9 µM in the assay with HCT-15 colon; 12.6 µM in the assay with DU-145 prostate; 30.8 µM with SN12C renal; 21.3 µM in the assay on A549 NSCLC; more than 40.5 µM with HS 578T breast; 13.9 µM with PC-3 prostate. Further, the TGI is 16.7 µM with OVCAR-4 ovarian, 7.2 µM in the assay with MDA-MB-231 breast, more than 100 µM in the assay on K-562 leukemia and 4.22 µM with UO-31 renal.
As to `Cc1ccc(/C=N\NC(=O)c2ccncc2)s1`, the TGI with HCT-15 colon, in the assay with DU-145 prostate, in the assay with SN12C renal, in the assay with A549 NSCLC, with HS 578T breast and in the assay on PC-3 prostate was more than 100 µM in each case. Further, the TGI with OVCAR-4 ovarian, in the assay with MDA-MB-231 breast, in the assay on K-562 leukemia and with UO-31 renal was more than 100 µM in each case.
As for `C=CCc1ccccc1C1CC2(C(=O)OC)OC1C(C(=O)OC)=C2C(=O)OC` (stereo not given), the TGI in the assay with HCT-15 colon, with DU-145 prostate, in the assay on SN12C renal, with A549 NSCLC, with HS 578T breast and in the assay with PC-3 prostate was more than 10 µM in each case. For the same molecule, the TGI in the assay on OVCAR-4 ovarian, in the assay on MDA-MB-231 breast, with K-562 leukemia and in the assay with UO-31 renal was more than 10 µM each time.
With `COC(=O)c1cc(C)ccc1C1CN=NC12Cc1c(C)cc(C)cc1C2=O` (stereo not given), the TGI is 69.1 µM in the assay with HCT-15 colon; more than 100 µM in the assay with DU-145 prostate; more than 100 µM with SN12C renal; more than 100 µM in the assay with A549 NSCLC; 55.8 µM in the assay with HS 578T breast; more than 100 µM with PC-3 prostate. Further, the TGI in the assay with OVCAR-4 ovarian is 80 µM; with MDA-MB-231 breast it was 65.7 µM; in the assay on K-562 leukemia, more than 100 µM; with UO-31 renal it was more than 100 µM.
In the case of `COc1ccccc1NC(=S)N/N=C/c1ccccn1`, the TGI was 29 µM with HCT-15 colon; 19 µM in the assay on DU-145 prostate; 5.15 µM with SN12C renal; 34.7 µM with A549 NSCLC; more than 46.4 µM with HS 578T breast; more than 46.4 µM in the assay on PC-3 prostate. The TGI in the assay on OVCAR-4 ovarian is more than 100 µM; in the assay on MDA-MB-231 breast it was more than 60.1 µM; in the assay on K-562 leukemia it was more than 31.6 µM; with UO-31 renal, 24.4 µM.
Regarding `COc1cc(S(=O)(=O)Nc2ccc(-c3csc(/N=C\c4ccccc4)n3)cc2)ccc1Cl`, the TGI in the assay on HCT-15 colon, in the assay on DU-145 prostate, in the assay with SN12C renal, in the assay with A549 NSCLC, in the assay on HS 578T breast and in the assay on PC-3 prostate was more than 100 µM in each case. The TGI with OVCAR-4 ovarian, in the assay on MDA-MB-231 breast, with K-562 leukemia and with UO-31 renal was more than 100 µM throughout.
Consider `CC1(C)[C@@H](OC(N)=O)C=C[C@]2(CO)[C@H]3CC[C@]4(C)[C@@H](c5ccc(=O)oc5)[C@@H](Cl)C[C@]4(O)C3=CC[C@@H]12`, for which the GI50 in the assay on HCT-15 colon is 4.81 nM; in the assay with DU-145 prostate, less than 0.1 nM; in the assay with SN12C renal, less than 0.1 nM; with A549 NSCLC it was less than 0.1 nM; in the assay on HS 578T breast, less than 0.1 nM; with PC-3 prostate, 1.89 nM. Moreover, the GI50 is less than 0.1 nM in the assay with OVCAR-4 ovarian; 17 nM and 2.5 nM in the assay on MDA-MB-231 breast; 3.54 nM and 2.5 nM with K-562 leukemia; 3.51 nM with UO-31 renal. For the same molecule, the TGI in the assay on HCT-15 colon was found to be 0.0258 µM; in the assay on DU-145 prostate, 0.00117 µM; with SN12C renal, 0.0157 µM; in the assay with A549 NSCLC it was 0.00192 µM; with HS 578T breast, 0.00837 µM; in the assay with PC-3 prostate it was 0.0137 µM. For the same molecule, the TGI with OVCAR-4 ovarian was 0.00372 µM; in the assay with MDA-MB-231 breast it was 0.0588 µM and 0.159 µM; in the assay on K-562 leukemia, 0.0188 µM and 0.0562 µM; with UO-31 renal, 0.0134 µM.
